Results on one molecule are retold here after patent publication US9982006B2, “2′-chloro aminopyrimidinone and pyrimidine dione nucleosides” (Gilead Sciences, Inc., priority 2014, dated 2018).

The assay concerns RSV strain A2. The assay can be described thus: RSV cell culture EC50 determination (infectious cytopathic cell protection assay in HEp-2 cells). The class given is cell-based. The following applies: human respiratory syncytial virus, 96 h; inhibition of RSV-induced cytopathic effect in HEp-2 cells, 4 days, Cell TiterGlo readout. Here is the method:
RSV Cell Culture EC50 Determination
Antiviral activity against RSV is determined using an infectious cytopathic cell protection assay in HEp-2 cells. In this assay, compounds inhibiting viral infection and/or replication produce a cytoprotective effect against the virus-induced cell killing that can be quantified using a cell viability reagent. The techniques used here are novel adaptations of methods described in published literature (Chapman et al., Antimicrob Agents Chemother. 2007, 51(9):3346-53.)
HEp-2 cells are obtained from ATCC (Manassas, VI) and maintained in MEM media supplemented with 10% fetal bovine serum and penicillin/streptomycin. […]
For antiviral tests, HEp-2 cells are grown in large cell culture flasks to near confluency but not fully so. […] Each compound dilution is transferred in single or quadruplicate samples into dry assay plates, which are stored until assay is ready to go. […]
Subsequently, an infectious mixture is prepared using an appropriate dilution of virus stock previously determined by titration with cells at a density of 50,000/ml and 20 uL/well is added to test plates w/compounds via automation (uFlow, Biotek). […] After the incubation, a cell viability reagent, Cell TiterGlo (Promega, Madison, Wis.) is added to the assay plates, which are incubated briefly, and a luminescent readout is measured (Envision, Perkin Elmer) in all the assay plates. […]
Background: Cytopathic effects are the visible damage that an infection or toxin causes in cultured cells.

Take `Nc1ccn([C@@H]2O[C@@](CO)(CCl)[C@@H](O)[C@H]2Cl)c(=O)n1` [Example 1, 4-amino-1-((2R,3R,4R,5R)-3-chloro-5-(chloromethyl)-4-hydroxy-5-(hydroxymethyl)tetrahydrofuran-2-yl)pyrimidin-2(1H)-one]: the EC50 (usually the midpoint of the concentration-response curve) is more than 50 µM.
